Test in all cases: DTP human tumour cell line panel, 48 h
Experiment [1] has as its system A498.
Experiment [2] deals with BT-549.
In experiment [3] the test system is CCRF-CEM.
Experiment [4] relates to DU-145.
Experiment [5] deals with HT-29.
For experiment [6], the system named is IGROV-1.
Experiment [7] relates to KM12.
The test system of experiment [8] is M14.
The test system of experiment [9] is Malme-3M.
For experiment [10], the system named is NCI-H226.
The subject of experiment [11] is OVCAR-4.
The test system of experiment [12] is SF-268.
The test system of experiment [13] is SF-295.
Experiment [14] deals with SK-OV-3.
Experiment [15] concerns SN12C.
Experiment [16] deals with SNB-19.
The subject of experiment [17] is SW-620.
The test system of experiment [18] is T47D.
Experiment [19] relates to U-251.
The test system of experiment [20] is UO-31.

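Following 48 hours of exposure in 96-well plates, responses at five concentrations were used to interpolate endpoints linearly. GI50 marks 50% less growth.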 Calls of active or inactive are those of the source. No stated cut-off is given here; in the data, active = GI50 up to about 1.1 µM and inactive = higher. Bounds are passed on as bounds.

A word on the GI50: it is the concentration giving 50% growth inhibition. On to `O=C(O)/C=C\C(=O)Nc1ccc2c(c1)C(=O)c1cc(F)ccc1-2`, for which the GI50 in [1], in [2], in experiment [3], in [4], in experiment [5] and in [6] was > 100 µM (inactive) throughout. In addition, the GI50 in experiment [7], in [8], in experiment [9], in experiment [10], in [11] and in experiment [12] was > 100 µM (inactive) each time. Moreover, the GI50 in [13], in experiment [14], in experiment [15], in experiment [16], in experiment [17] and in experiment [18] was > 100 µM (inactive) throughout. The GI50 in experiment [19] is 99.8 µM (inactive); in [20], > 100 µM (inactive).

Turning to `c1ccc2c(c1)-c1nc3ccccc3cc1C2N1CCOCC1` (stereo not given), the GI50 in experiment [1] is > 100 µM (inactive); in [2], > 100 µM (inactive); in [3] it was 28.4 µM (inactive); in [4] it was > 100 µM (inactive); in experiment [5], 92.5 µM (inactive); in [6], 79.4 µM (inactive). Also, the GI50 in experiment [7] is > 100 µM (inactive); in experiment [8], > 100 µM (inactive); in experiment [9], > 100 µM (inactive); in experiment [10], > 100 µM (inactive); in experiment [11] it was 47.6 µM (inactive); in experiment [12], 61.2 µM (inactive). For the same compound, the GI50 in experiment [13] was > 100 µM (inactive); in [14] it was > 100 µM (inactive); in experiment [15], > 100 µM (inactive); in experiment [16], > 100 µM (inactive); in [17], > 100 µM (inactive); in [18], 45.8 µM (inactive). The GI50 in experiment [19] was > 100 µM (inactive); in experiment [20], 1.37 µM (inactive).

As to `COc1cc(C(=O)NC2CCc3cc(OC)c(OC)c(OC)c3-c3ccc(OC)c(=O)cc32)cc(OC)c1OC` (stereo not given), the GI50 in experiment [1] is 0.274 µM (active); in [2] it was 0.083 µM (active); in experiment [3], 0.0339 µM (active); in experiment [4], 0.24 µM (active); in [5] it was 0.0467 µM (active); in [6] it was 0.0891 µM (active). For the same compound, the GI50 is 0.036 µM (active) in [7]; 0.202 µM (active) in experiment [8]; 0.141 µM (active) in [9]; 0.444 µM (active) in [10]; 15.8 µM (inactive) in [11]; 0.0828 µM (active) in experiment [12]. Besides, the GI50 in [13] is 0.153 µM (active); in experiment [14], 0.231 µM (active); in experiment [15] it was 0.199 µM (active); in [16], 0.138 µM (active); in experiment [17], 0.0521 µM (active); in [18] it was 18.8 µM (inactive). Further, the concentration for 50% growth inhibition (GI50) in experiment [19] is 0.0555 µM (active); in experiment [20] it was 10.9 µM (inactive).

`CC(=O)OC1=CC(n2cc(F)c(=O)[nH]c2=O)OC(C)C1=O` (stereo not given): the GI50 in [1] is 10.4 µM (inactive); in experiment [2] it was 22.2 µM (inactive); in experiment [3], 75 µM (inactive); in [4] it was 21.6 µM (inactive); in [5], 10.7 µM (inactive); in experiment [6] it was 30.5 µM (inactive). Further, the GI50 in [7] was 22.8 µM (inactive); in experiment [8], 61.2 µM (inactive); in [9], 19.6 µM (inactive); in experiment [10], > 97.3 µM (inactive); in experiment [11], > 82.2 µM (inactive); in experiment [12], 81.5 µM (inactive). Moreover, the GI50 was 48.9 µM (inactive) in experiment [13]; 99.1 µM (inactive) in [14]; 67.8 µM (inactive) in experiment [15]; 61.9 µM (inactive) in experiment [16]; 59 µM (inactive) in experiment [17]; 16.7 µM (inactive) in experiment [18]. Further, the GI50 is > 85.7 µM (inactive) in experiment [19] and 13.5 µM (inactive) in [20].

Take `COC(=O)c1sc2ncc3c(c2c1N)CCCCCC3`: the GI50 in [1], in experiment [2], in experiment [3], in experiment [4], in experiment [5] and in experiment [6] was > 100 µM (inactive) each time. The GI50 in experiment [7], in [8], in experiment [9], in experiment [10], in experiment [11] and in experiment [12] was > 100 µM (inactive) throughout. Moreover, the GI50 in [13], in experiment [14], in experiment [15], in [16], in experiment [17] and in [18] was > 100 µM (inactive) throughout. For the same compound, the GI50 in experiment [19] and in [20] was > 100 µM (inactive) in each case.

Turning to `COC(=O)c1c(C)[nH]c2c1C(=O)C(=O)c1nc(C)c(C)nc1-2`, the GI50 in [1] is 2.92 µM (inactive); in [2] it was 10.9 µM (inactive); in experiment [3], 5.04 µM (inactive); in experiment [4], 6.04 µM (inactive); in experiment [5] it was 14 µM (inactive); in experiment [6] it was 3.41 µM (inactive). The GI50 in experiment [7] is 10.8 µM (inactive); in experiment [8], 10.7 µM (inactive); in [9], 3.58 µM (inactive); in [10], 11.8 µM (inactive); in [11] it was 12.9 µM (inactive); in experiment [12] it was 9.53 µM (inactive). Moreover, the GI50 in experiment [13] was 4.54 µM (inactive); in experiment [14] it was 3.5 µM (inactive); in experiment [15], 2.84 µM (inactive); in experiment [16], 4.76 µM (inactive); in [17], 10.8 µM (inactive); in experiment [18], 0.162 µM (active). The GI50 in experiment [19] was 4.84 µM (inactive); in [20], 10.1 µM (inactive).

On to `COc1ccc(/C=N/c2c(O)ccc3ccccc23)cc1OC`, for which the GI50 was > 100 µM (inactive) in experiment [1]; 89.3 µM (inactive) in experiment [2]; > 100 µM (inactive) in experiment [3]; > 100 µM (inactive) in experiment [4]; 98.9 µM (inactive) in experiment [5]; 2.81 µM (inactive) in [6]. For the same compound, the GI50 in experiment [7] was > 100 µM (inactive); in [8], 74.5 µM (inactive); in experiment [9], 14.5 µM (inactive); in experiment [10] it was > 100 µM (inactive); in experiment [11], > 100 µM (inactive); in experiment [12], 19.4 µM (inactive). The GI50 in experiment [13] was 63.7 µM (inactive); in [14], > 100 µM (inactive); in experiment [15], > 100 µM (inactive); in experiment [16] it was > 100 µM (inactive); in [17] it was > 100 µM (inactive); in experiment [18], 84.5 µM (inactive). Moreover, the GI50 in experiment [19] and in [20] was > 100 µM (inactive) in each case.

As for `O=c1c2nc3ccccc3c(=O)n2ncn1-c1ccccc1Cl`, the GI50 in experiment [1], in experiment [2], in [3], in [4], in experiment [5] and in [6] was > 100 µM (inactive) in each case. Besides, the GI50 in experiment [7], in experiment [8], in experiment [9], in experiment [10], in [11] and in experiment [12] was > 100 µM (inactive) each time. In addition, the GI50 in experiment [13], in experiment [14], in experiment [15], in [16], in experiment [17] and in experiment [18] was > 100 µM (inactive) throughout. For the same compound, the GI50 in [19] and in experiment [20] was > 100 µM (inactive) throughout.

`C=C1C(=O)O[C@H]2C[C@@]3(C)[C@H](O)CCC(=C)[C@@H]3[C@@H](OC(C)=O)[C@H]12`: the GI50 is 17.8 µM (inactive) in experiment [1]; 7.33 µM (inactive) in experiment [2]; 1 µM (active) in [3]; 10.9 µM (inactive) in experiment [4]; 5.92 µM (inactive) in experiment [5]; 14.1 µM (inactive) in experiment [6]. Besides, the GI50 in experiment [7] was 16.4 µM (inactive); in [8], 5.9 µM (inactive); in [9] it was 1.45 µM (inactive); in experiment [10], 15.2 µM (inactive); in experiment [11], 4.85 µM (inactive); in experiment [12], 19.2 µM (inactive). The GI50 in experiment [13] is 18.9 µM (inactive); in [14], 30.2 µM (inactive); in experiment [15] it was 7.83 µM (inactive); in [16], 12.9 µM (inactive); in experiment [17], 4.85 µM (inactive); in [18], 4.65 µM (inactive). The GI50 in [19] is 20.2 µM (inactive); in experiment [20], 13.5 µM (inactive).

On to `C/C(=N\NC(=S)N1CCCC1)c1nc2cccnc2[nH]1`, for which the GI50 is 0.869 µM (active) in experiment [1]; 0.129 µM (active) in [2]; 0.0638 µM (active) in [3]; 0.175 µM (active) in experiment [4]; 0.394 µM (active) in experiment [5]; 0.354 µM (active) in experiment [6]. The concentration for 50% growth inhibition (GI50) in [7] is 0.321 µM (active); in experiment [8], 0.357 µM (active); in experiment [9] it was 0.583 µM (active); in experiment [10], 0.277 µM (active); in experiment [11] it was 0.302 µM (active); in [12], 0.185 µM (active). The concentration for 50% growth inhibition (GI50) in [13] was 0.254 µM (active); in experiment [14] it was 0.442 µM (active); in experiment [15], 0.378 µM (active); in experiment [16], 0.37 µM (active); in experiment [17], 1.22 µM (inactive); in experiment [18], 0.432 µM (active). Besides, the GI50 in experiment [19] was 0.0962 µM (active); in experiment [20] it was 0.0634 µM (active).

The values are drawn from ChEMBL document CHEMBL1201862, “PubChem BioAssay data set” (2004).
